Laboratory results: patent US11472778B2, “Hepatitis C virus NS3/4A protease inhibitors” (priority 2017, dated 2022)
Where two headings read alike, the source gives them in different places.

How the values were obtained:
Assay type in all cases: biochemical, Hepatitis C virus
[1] = biological target: T1, GT1a D168A NS3/4A protease (UniProt P27958, D1194A, species not given)
T1 construct: rows headed: Ki (nM) D168A; Ki D168A; other: D168A variant
How it was run: (§1)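 Enzyme (GT1a wild type or D168A mutant, 2 nM) was preincubated with inhibitor dilutions for 1 h at room temperature in pH 7.5 Tris buffer with glycerol, DTT, LDAO and 4% DMSO.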

[2] = biological target: GT1a D168A NS3/4A protease; settings: fold change in Ki, D168A relative to WT
How it was run: as §1

[3] = biological target: T2, wild-type GT1a NS3/4A protease (UniProt P27958)
T2 construct: Ki WT; other: wild-type HCV NS3/4A protease
How it was run: as §1

[4] = biological target: GT1a R155K NS3/4A protease (UniProt P27958, R1181K, species not given)
Method: (§2) For each assay, 2 nM of NS3/4A protease (GT1a, R155K and D168A) was pre-incubated at room temperature for 1 h with increasing concentration of inhibitors in assay buffer (50 mM Tris, 5% glycerol, 10 mM DTT, 0.6 mM LDAO, and 4% dimethyl sulfoxide, pH 7.5). Inhibition assays were performed in non-binding surface 96-well black half-area plates (Corning) in a reaction volume of 60 μL. […] Three independent data sets were collected for each inhibitor with each protease construct. […] Gibbs free energy of binding was calculated using the following equation: ΔG=RTlnKi

[5] = biological target: GT1a R155K NS3/4A protease; settings: fold change in Ki, R155K relative to WT
Method: as §2

[6] = read-out: Ki (nM) D168A, Table 8, linear inhibitors
[7] = read-out: Ki D168A, D168A variant
[8] = read-out: Ki (nM) WT, Table 8, linear inhibitors
[9] = read-out: Ki WT, wild-type HCV NS3/4A protease
[10] = read-out: Ki (nM) R155K, Table 8, linear inhibitors
[11] = read-out: Ki R155K, R155K variant

SMILES | Ki [1, 6] [nM] | Ki [1, 7] [nM] | Ki D168A (fold change) [2] | Ki [3, 8] [nM] | Ki [3, 9] [nM] | Ki [4, 10] [nM] | Ki [4, 11] [nM] | Ki R155K (fold change) [5]
C=C[C@@H]1C[C@]1(NC(=O)[C@@H]1C[C@@H](Oc2nc3cc(OC)ccc3nc2C)CN1C(=O)[C@@H](NC(=O)OC(C)(C)C)C(C)(C)C)C(=O)NS(=O)(=O)C1CC1 [Compound 9b, tert-Butyl ((S)-1-((2S,4R)-2-(((1R,2S)-1-((cyclopropylsulfonyl)carbamoyl)-2-vinylcyclopropyl)carbamoyl)-4-((7-methoxy-3-methylquinoxalin-2-yl)oxy)pyrrolidin-1-yl)-3,3-dimethyl-1-oxobutan-2-yl)carbamate] | 290 ± 24 | 290 ± 24 | 16 | 18 ± 1.6 | 18 ± 1.6 | 8.5 ± 2.1 | 8.5 ± 2.1 | 0.5
C=C[C@@H]1C[C@]1(NC(=O)[C@@H]1C[C@@H](Oc2nc3cc(OC)ccc3nc2C(C)C)CN1C(=O)[C@@H](NC(=O)OC(C)(C)C)C(C)(C)C)C(=O)NS(=O)(=O)C1CC1 [Compound 9c, tert-Butyl ((S)-1-((2S,4R)-2-(((1R,2S)-1-((cyclopropylsulfonyl)carbamoyl)-2-vinylcyclopropyl)carbamoyl)-4-((3-isopropyl-7-methoxyquinoxalin-2-yl)oxy)pyrrolidin-1-yl)-3,3-dimethyl-1-oxobutan-2-yl)carbamate] | 1090 ± 137 | 1090 ± 137 | 34 | 32 ± 5.1 | 32 ± 5.1 | 49 ± 11 | 49 ± 11 | 1.5
C=C[C@@H]1C[C@]1(NC(=O)[C@@H]1C[C@@H](Oc2nc3cc(OC)ccc3nc2C(F)(F)F)CN1C(=O)[C@@H](NC(=O)OC(C)(C)C)C(C)(C)C)C(=O)NS(=O)(=O)C1CC1 [Compound 9e, tert-Butyl ((S)-1-((2S,4R)-2-(((1R,2S)-1-((cyclopropylsulfonyl)carbamoyl)-2-vinylcyclopropyl)carbamoyl)-4-((7-methoxy-3-(trifluoromethyl)quinoxalin-2-yl)oxy)pyrrolidin-1-yl)-3,3-dimethyl-1-oxobutan-2-yl)carbamate] | 723 ± 80 | 723 ± 80 | 8 | 87 ± 18 | 87 ± 18 | 24 ± 3.3 | 24 ± 3.3 | 0.3
C=C[C@@H]1C[C@]1(NC(=O)[C@@H]1C[C@@H](Oc2nc3cc(OC)ccc3nc2CC)CN1C(=O)[C@@H](NC(=O)OC(C)(C)C)C(C)(C)C)C(=O)NS(=O)(=O)C1(C)CC1 [Compound 10a, tert-Butyl ((S)-1-((2S,4R)-4-((3-ethyl-7-methoxyquinoxalin-2-yl)oxy)-2-(((1R,2S)-1-(((1-methylcyclopropyl)sulfonyl)carbamoyl)-2-vinylcyclopropyl)carbamoyl)pyrrolidin-1-yl)-3,3-dimethyl-1-oxobutan-2-yl)carbamate] | 385 ± 31 | 385 ± 31 | 24 | 16 ± 1.3 | 16 ± 1.3 | 14 ± 1.1 | 14 ± 1.1 | 0.9
C=C[C@@H]1C[C@]1(NC(=O)[C@@H]1C[C@@H](Oc2nc3cc(OC)ccc3nc2C)CN1C(=O)[C@@H](NC(=O)OC(C)(C)C)C(C)(C)C)C(=O)NS(=O)(=O)C1(C)CC1 [Compound 10b, tert-Butyl ((S)-1-((2S,4R)-4-((7-methoxy-3-methylquinoxalin-2-yl)oxy)-2-(((1R,2S)-1-(((1-methylcyclopropyl)sulfonyl)carbamoyl)-2-vinylcyclopropyl)carbamoyl)pyrrolidin-1-yl)-3,3-dimethyl-1-oxobutan-2-yl)carbamate] | 265 ± 26 | 265 ± 26 | 19 | 14 ± 2.1 | 14 ± 2.1 | 14 ± 1.7 | 14 ± 1.7 | 1.0
C=C[C@@H]1C[C@]1(NC(=O)[C@@H]1C[C@@H](Oc2nc3cc(OC)ccc3nc2C(C)C)CN1C(=O)[C@@H](NC(=O)OC(C)(C)C)C(C)(C)C)C(=O)NS(=O)(=O)C1(C)CC1 [Compound 10c, tert-Butyl ((S)-1-((2S,4R)-4-((3-isopropyl-7-methoxyquinoxalin-2-yl)oxy)-2-(((1R,2S)-1-(((1-methylcyclopropyl)sulfonyl)carbamoyl)-2-vinylcyclopropyl)carbamoyl)pyrrolidin-1-yl)-3,3-dimethyl-1-oxobutan-2-yl)carbamate] | 1180 ± 170 | 1180 ± 170 | 41 | 29 ± 9.4 | 29 ± 9.4 | 27 ± 5.6 | 27 ± 5.6 | 0.9
C=C[C@@H]1C[C@]1(NC(=O)[C@@H]1C[C@@H](Oc2nc3cc(OC)ccc3nc2C(F)(F)F)CN1C(=O)[C@@H](NC(=O)OC(C)(C)C)C(C)(C)C)C(=O)NS(=O)(=O)C1(C)CC1 [Compound 10e, tert-Butyl ((S)-1-((2S,4R)-4-((7-methoxy-3-(trifluoromethyl)quinoxalin-2-yl)oxy)-2-(((1R,2S)-1-(((1-methylcyclopropyl)sulfonyl)carbamoyl)-2-vinylcyclopropyl)carbamoyl)pyrrolidin-1-yl)-3,3-dimethyl-1-oxobutan-2-yl)carbamate] | 513 ± 50 | 513 ± 50 | 11 | 46 ± 9.6 | 46 ± 9.6 | 12 ± 1.7 | 12 ± 1.7 | 0.3
C=C[C@@H]1C[C@]1(NC(=O)[C@@H]1C[C@@H](Oc2nc3cc(OC)ccc3nc2CC)CN1C(=O)[C@@H](NC(=O)OC1CCCC1)C(C)(C)C)C(=O)NS(=O)(=O)C1CC1 [Compound 11a, Cyclopentyl ((S)-1-((2S,4R)-2-(((1R,2S)-1-((cyclopropylsulfonyl)carbamoyl)-2-vinylcyclopropyl)carbamoyl)-4-((3-ethyl-7-methoxyquinoxalin-2-yl)oxy)pyrrolidin-1-yl)-3,3-dimethyl-1-oxobutan-2-yl)carbamate] | 350 ± 30 | 350 ± 30 | 36 | 9.8 ± 2 | 9.8 ± 2 | 15 ± 2.2 | 15 ± 2.2 | 1.5
C=C[C@@H]1C[C@]1(NC(=O)[C@@H]1C[C@@H](Oc2nc3cc(OC)ccc3nc2C(C)C)CN1C(=O)[C@@H](NC(=O)OC1CCCC1)C(C)(C)C)C(=O)NS(=O)(=O)C1CC1 [Compound 11c, Cyclopentyl ((S)-1-((2S,4R)-2-(((1R,2S)-1-((cyclopropylsulfonyl)carbamoyl)-2-vinylcyclopropyl)carbamoyl)-4-((3-isopropyl-7-methoxyquinoxalin-2-yl)oxy)pyrrolidin-1-yl)-3,3-dimethyl-1-oxobutan-2-yl)carbamate] | 985 ± 106 | 985 ± 106 | 58 | 17 ± 3.2 | 17 ± 3.2 | 55 ± 11 | 55 ± 11 | 3
C=C[C@@H]1C[C@]1(NC(=O)[C@@H]1C[C@@H](Oc2nc3cc(OC)ccc3nc2C(F)(F)F)CN1C(=O)[C@@H](NC(=O)OC1CCCC1)C(C)(C)C)C(=O)NS(=O)(=O)C1CC1 [Compound 11e, Cyclopentyl ((S)-1-((2S,4R)-2-(((1R,2S)-1-((cyclopropylsulfonyl)carbamoyl)-2-vinylcyclopropyl)carbamoyl)-4-((7-methoxy-3-(trifluoromethyl)quinoxalin-2-yl)oxy)pyrrolidin-1-yl)-3,3-dimethyl-1-oxobutan-2-yl)carbamate] | 703 ± 63 | 703 ± 63 | 21 | 34 ± 8.3 | 34 ± 8.3 | 26 ± 7.7 | 26 ± 7.7 | 0.8
C=C[C@@H]1C[C@]1(NC(=O)[C@@H]1C[C@@H](Oc2nc3cc(OC)ccc3nc2CC)CN1C(=O)[C@@H](NC(=O)OC1CCCC1)C(C)(C)C)C(=O)NS(=O)(=O)C1(C)CC1 [Compound 12a, Cyclopentyl ((S)-1-((2S,4R)-4-((3-ethyl-7-methoxyquinoxalin-2-yl)oxy)-2-(((1R,2S)-1-(((1-methylcyclopropyl)sulfonyl)carbamoyl)-2-vinylcyclopropyl)carbamoyl)pyrrolidin-1-yl)-3,3-dimethyl-1-oxobutan-2-yl)carbamate] | 145 | 145 ± 14 | 21 | 6.9 | 6.9 ± 0.5 | 13 ± 2.7 | 13 ± 2.7 | 1.9
